In patent US6326395A, “Antifungal activity of dicationic molecules” (priority 1999, dated 2001):
≈ marks a conversion by molar mass, not a printed value. Counter-ions that a name gives are not always drawn. Like-named read-outs stand apart in the source and are kept apart here.

Tests used:
Cryptococcus neoformans = test: in vitro antifungal susceptibility testing (MIC, MFC; broth macrodilution), Tables 1-7; assay type: cell-based; settings: for MIC: read-out: MIC80 (Minimum inhibitory concentration 80%); for MFC: read-out: MFC (Minimum fungicidal concentration)
Text: (§1) The fungi that were employed included two reference strains, C. neoformans var. neoformans H99 and C. albicans A39 and the following clinical isolates: (1) two strains of fluconazole-resistant C. neoformans var. neoformans (135.95 and 114.96); (2) two strains of C. neoformans var. gattii (119.95 and 114.95); (3) two strains of fluconazole-resistant C. albicans (102.96 and 103.96); and (4) one strain each of Torulopsis glabrata (142.91), Candida parapsilosis (111.96), Candida krusei (132.91), C. tropicalis (110.96), Candida lusitaniae (111.92), Fusarium solani (152.89), Aspergillus fumigatus (168.95), and Aspergillus flavus (112.96). Antifungal susceptibility testing was performed using an RPMI-1640 medium (Sigma Chemical Co., St. Louis, Mo.) with glutamine, without sodium bicarbonate, and buffered at pH 7.0 with 0.165 M morpholine-propanesulfonic acid (MOPS).
(§2) In vitro susceptibility testing in the form of Minimum Inhibitory Concentration (MIC) experiments were performed using the broth macrodilution method according to the recommendations of the National Committee for Clinical Laboratory Standards (see 1995 manual). The only difference compared to the standardized procedure was the choice of drug dilutions ranging from 100 to 0.09 μg/ml. Briefly, this procedure specifies an inoculum grown at 35° C. and adjusted to a concentration of 0.5-2.5×10^3 CFU/ml with an incubation of the test performed at 35° C. and reading at 48 hours for all yeasts except for C. neoformans which is interpreted at 72 hr.
(§3) Minimum Fungicidal Concentration (MFC) experiments were adapted from a method by McGinnis (McGinnis, M. R., (1980) "Susceptibility testing and bioassay procedure", p. 431, Academic Press, Inc., New York). Briefly, 10 μl aliquots from tubes with growth inhibition were plated onto Sabouraud agar plates.
(§4) The fungi that were employed included two quality control reference strains, C. neoformans var. neoformansH99 and C. albicans A39 and the following clinical isolates: (1) four strains of C. neoformans var. neoformans (167.95; 135.95; 114.96; and 133.95) of which three were fluconazole-resistant>64 μg/ml (135.95; 114.96; and 133.95); (2) two strains of C. neoformans var. gattii (119.95 and 114.95); (3) two strains of fluconazole-resistant>64 μg/ml C. albicans (102.96 and 103.96); and (4) one strain each of C. glabrata (142.91), Candida parapsilosis (111.96), Candida krusei (132.91), C. tropicalis (110.96), Candida lusitaniae (111.92), Fusarium solani (152.89), Aspergillus fumigatus (168.95), Rhizopus arrhizus (117.89), Paecilomyces lilacinus (137.90), and Aspergillus flavus (112.96). Antifungal susceptibility testing was performed using an RPMI-1640 medium (Sigma Chemical Co., St. Louis, Mo.) with glutamine, without sodium bicarbonate, and buffered at pH 7.0 with 0.165 M morpholinepropanesulfonic acid (MOPS).
as §3, with “p.431,” for “p. 431,”

Candida albicans = test: as above; assay type: cell-based; settings: for MIC: read-out: MIC80 (Minimum inhibitory concentration 80%); for MFC: read-out: MFC (Minimum fungicidal concentration)
Text: as §1, §2, §3, §4
as §3, with “p.431,” for “p. 431,”

[1] = Tables 2-7, three or fewer colonies
[2] = Table 1, three or fewer colonies

Row | Compound | MIC (Cryptococcus neoformans; 35° C., 72 hr) | MIC (Candida albicans; 35° C., reading at 48 hours) | MFC (Cryptococcus neoformans; [1]) | MFC (Candida albicans; three or fewer colonies) | MFC (Cryptococcus neoformans; [2]) | MIC (Cryptococcus neoformans; 72 h) | MFC (Cryptococcus neoformans) | MIC (Candida albicans; 48 h) | MFC (Candida albicans) | MFC (Minimum fungicidal concentration) (Cryptococcus neoformans; [1])
1 | c1cc2nc(Cc3nc4ccc(C5=NCCN5)cc4[nH]3)[nH]c2cc1C1=NCCN1 [Compound 29] | 100 µg/mL (≈ 260 µM) | > 100 µg/mL | > 100 µg/mL | > 100 µg/mL |  |  |  |  |  | 
2 | N=C(N)c1ccc(NCCCNc2ccc(C(=N)N)cc2N)c(N)c1 [Compound 9] | 25 µg/mL (≈ 73.4 µM) | 12.5 µg/mL (≈ 36.7 µM) |  | > 100 µg/mL | 50 µg/mL (≈ 147 µM) |  |  |  |  | 
3 | N=C(N)c1ccc(OCCCOc2ccc(C(=N)N)cc2)cc1 [Compound 3] | 6.25 µg/mL (≈ 20 µM) | 3.12 µg/mL (≈ 9.99 µM) |  | 3.12 µg/mL (≈ 9.99 µM) | 6.25 µg/mL (≈ 20 µM) |  |  |  |  | 
4 | N=C(N)c1ccc(NCCCNc2ccc(C(=N)N)cc2[N+](=O)[O-])c([N+](=O)[O-])c1 [Compound 10] |  |  |  |  |  | 100 µg/mL (≈ 250 µM) | 100 µg/mL (≈ 250 µM) | 100 µg/mL (≈ 250 µM) | 100 µg/mL (≈ 250 µM) | 
5 | N=C(N)c1ccc(OCCCCOc2ccc(C(=N)N)cc2)cc1 [Compound 11] | 3.12 µg/mL (≈ 9.56 µM) | 25 µg/mL (≈ 76.6 µM) |  | 50 µg/mL (≈ 153 µM) | 6.25 µg/mL (≈ 19.1 µM) |  |  |  |  | 
6 | CN(C)CCCNC(=O)c1ccc(-c2ccc(-c3ccc(C(=O)NCCCN(C)C)cc3)o2)cc1 [Compound 35] | > 100 µg/mL | > 100 µg/mL |  |  |  |  |  |  |  | 
7 | N=C(N)c1ccc(OCCCCCOc2ccc(C(=N)N)cc2)cc1 [Pentamidine, reference compound] |  |  |  |  |  | 3.12 µg/mL (≈ 9.16 µM) | 6.25 µg/mL (≈ 18.4 µM) | 0.78 µg/mL (≈ 2.29 µM) | 1.56 µg/mL (≈ 4.58 µM) | 6.25 µg/mL (≈ 18.4 µM)
8 | CN(C)CCNC(=N)c1cccc(-c2ccc(-c3cccc(C(=N)NCCN(C)C)c3)o2)c1 [Compound 41] | 12.5 µg/mL (≈ 28 µM) | > 100 µg/mL | 50 µg/mL (≈ 112 µM) |  |  |  |  |  |  | 
9 | N=C(N)c1cccc(OCCCCCCOc2cccc(C(=N)N)c2)c1 [Compound 19] | 6.25 µg/mL (≈ 17.6 µM) | 1.58 µg/mL (≈ 4.46 µM) |  | 12.5 µg/mL (≈ 35.3 µM) | 12.5 µg/mL (≈ 35.3 µM) |  |  |  |  | 

The next lines start with results.

Row | MIC (Cryptococcus neoformans; 35° C., 72 hr) | MIC (Candida albicans; 35° C., reading at 48 hours) | Compound | MFC (Cryptococcus neoformans; [1]) | MFC (Candida albicans; three or fewer colonies) | MFC (Cryptococcus neoformans; [2]) | MIC (Cryptococcus neoformans; 72 h) | MFC (Cryptococcus neoformans) | MIC (Candida albicans; 48 h) | MFC (Candida albicans) | MFC (Minimum fungicidal concentration) (Cryptococcus neoformans; [1])
10 | 0.19 µg/mL | 0.39 µg/mL | N=C(N)c1ccc2nc(-c3ccc4oc(-c5nc6ccc(C(=N)N)cc6[nH]5)cc4c3)[nH]c2c1 [Compound 55, 2,5-Bis[2-(5-amidino)benzimidazoyl]benzo[b]furan hydrochloride] | 0.19 µg/mL | 0.78 µg/mL |  |  |  |  |  | 
11 | 0.78 µg/mL (≈ 2.04 µM) | 0.78 µg/mL (≈ 2.04 µM) | N=C(N)c1ccc(NCCCCCCNc2ccc(C(=N)N)cc2N)c(N)c1 [Compound 20] |  | 3.12 µg/mL (≈ 8.16 µM) | 3.12 µg/mL (≈ 8.16 µM) |  |  |  |  | 
12 | 0.39 µg/mL | 1.56 µg/mL | CC(C)NC(=N)c1ccc2nc(-c3ccc(CCc4ccc(-c5nc6ccc(C(=N)NC(C)C)cc6[nH]5)cc4)cc3)[nH]c2c1 [Compound 53, 4,4'-Bis[2-(5-N-isopropylamidino)benzimidazoyl]-1,2-diphenylethane hydrochloride] | 0.78 µg/mL | 6.25 µg/mL |  |  |  |  |  | 
13 | 0.78 µg/mL (≈ 2.3 µM) | ≤ 0.09 µg/mL | N=C(N)c1ccc(NCCCCCNc2ccc(C(=N)N)cc2)cc1 [Compound 18] |  | 0.39 µg/mL (≈ 1.15 µM) | 1.56 µg/mL (≈ 4.61 µM) |  |  |  |  | 
14 | 0.78 µg/mL (≈ 2.11 µM) | 0.78 µg/mL (≈ 2.11 µM) | N=C(N)c1ccc(Oc2ccc(-c3nc4ccc(C(=N)N)cc4[nH]3)cc2)cc1 [Compound 67] | 6.25 µg/mL (≈ 16.9 µM) | 0.78 µg/mL (≈ 2.11 µM) |  |  |  |  |  | 
15 | 1.56 µg/mL | 1.56 µg/mL | N=C(NC1CCCC1)c1ccc2nc(-c3ccc(-c4ccc(-c5ccc(-c6nc7ccc(C(=N)NC8CCCC8)cc7[nH]6)cc5)o4)cc3)[nH]c2c1 [Compound 54, 4,4'-Bis[2-(5-N-cyclopentylamidino)benzimidazoyl]-2,5-diphenylfuran hydrochloride] | 6.25 µg/mL | 1.56 µg/mL |  |  |  |  |  | 
16 | 0.78 µg/mL (≈ 1.75 µM) | 0.78 µg/mL (≈ 1.75 µM) | c1cc2nc(-c3ccc(-c4nc5ccc(C6=NCCN6)cc5[nH]4)cc3)[nH]c2cc1C1=NCCN1 [Compound 48] | 1.56 µg/mL (≈ 3.49 µM) | 6.25 µg/mL (≈ 14 µM) |  |  |  |  |  | 
17 | 0.19 µg/mL (≈ 0.443 µM) | 0.39 µg/mL (≈ 0.91 µM) | N=C(N)c1ccc(OCCCOc2ccc(-c3nc4ccc(C(=N)N)cc4[nH]3)cc2)cc1 [Compound 64] | 0.78 µg/mL (≈ 1.82 µM) | 0.78 µg/mL (≈ 1.82 µM) |  |  |  |  |  | 
18 | 1.56 µg/mL (≈ 4.53 µM) | 6.25 µg/mL (≈ 18.1 µM) | N=C(N)c1ccc2nc(C=Cc3nc4ccc(C(=N)N)cc4[nH]3)[nH]c2c1 [Compound 32] | 3.12 µg/mL (≈ 9.06 µM) | 12.5 µg/mL (≈ 36.3 µM) |  |  |  |  |  | 
19 | 0.39 µg/mL (≈ 0.854 µM) | 0.78 µg/mL (≈ 1.71 µM) | N=C(N)c1ccc(OCCCCCOc2ccc(-c3nc4ccc(C(=N)N)cc4[nH]3)cc2)cc1 [Compound 66] | 6.25 µg/mL (≈ 13.7 µM) | 1.56 µg/mL (≈ 3.42 µM) |  |  |  |  |  | 
